Laboratory results: patent publication US20180311353A1, “TRIPLET-TRIPLET ANNIHILATION-BASED UPCONVERSION” (Children's Medical Center Corporation, priority 2015, published 2018)

Experiments:
[1] = 530 nm LED, 150 mW cm^−2
Text: This example illustrates cell binding triggered by TTA-UC. Photo-triggered binding of NPTTA-c[R]GDfK to cells by flow cytometry and confocal microscopy, was studied with micelles in which a hydrophilic dye, Lissamine™ rhodamine B (LRB), was covalently bound to the PLA-PEG copolymer (forming PLA-PEG-LRB; FIG. 16).

[2] = Photocleavage of DEACM from NPTTA-c[R]GDfK (530 nm LED, centrifugal filtrate); type: physicochemical; conditions: HPLC of filtrate
Method: Photocleavage of DEACM from NPTTA-c[R]GDfK. One milliliter of NPTTA-c[R]GDfK solution (1 mg mL^−1) was put in a quartz cuvette and irradiated with LED light (530 nm, 150 mW cm^−2). At each irradiation time, the solution was put in an Amicon® Ultra centrifugal filter (50,000 Da cut-off) and centrifuged at 4000 rmp for 15 min. […]
Photocleavage of DEACM from NPTTA-c[R]GDfK. […] At each irradiation time, the solution was transferred into an Amicon® Ultra centrifugal filter (MWCO: 50,000 Da) and centrifuged at 4000 rmp for 15 min. […]

[3] = Photocleavage of c[R]GDfK molecule (400 nm LED, HPLC); type: physicochemical; conditions: PBS
Method: Construction of photo-targeted polymeric micelles. […] The identity of the peaks was further confirmed by mass spectrometry. Approximately 86% of cleavage occurred within 30 s of irradiation at 50 mW cm^−2 (FIG. 2C). At an irradiance as low as 2.3 mW cm^−2, ˜42% of c[R]GDfK was cleaved after 2 min of irradiation.
FIG. 2A. Photocleavage of c[R]GDfK. […] FIG. 2B. UV-visible absorption and fluorescence emission spectra of c[R]GDfK in PBS (pH 7.4). The excitation wavelength for the fluorescence spectrum was 385 nm. FIG. 2C. Photocleavage rate of c[R]GDfK in PBS, as determined by HPLC (detected at 390 nm), after continuous irradiation with 400 nm LED light at 2.3 mW cm^−2 and 50 mW cm^−2 (data are mean+/−SD; n=4). a.u.=arbitrary units. […]
Photocleavage of c[R]GDfK molecule. A disposable macro fluorescence cuvette containing 400 microliters of c[R]GDfK PBS solution (50 microgram/mL) was irradiated under an 11-mm LED (400 nm) collimator with a Multi-channel Universal LED controller (Mightex Systems, CA, USA). […] The LED irradiance was measured with a PM100USB Power and Energy Meter (ThorLabs, NJ, USA). At each irradiation time point, 50 microliters of the irradiated solution was analyzed by reverse-phase high-performance liquid chromatography (RP-HPLC) with an Agilent 1260 Infinity LC system and a Poroshell 120 EC-C18 column (4.6×100 mm) (Agilent Technologies, CA, USA). […]

Compound | photostable under irradiation, time [1] | photocleavage of DEACM on 530 nm irradiation [2] | c[R]GDfK cleaved ([3]; 2.3 mW cm^−2, after 2 min) | cleavage of c[R]GDfK ([3]; 50 mW cm^−2, within 30 s, 50 microgram/mL)
CCN(CC)c1ccc2c(-c3ccc(S(=O)(=O)NCCN)cc3S(=O)(=O)O)c3ccc(=[N+](CC)CC)cc-3oc2c1.O=C(O)C(F)(F)F [LRB, Lissamine™ rhodamine B ethylenediamine] | at least 10 min |  |  | 
c[R]GDfK |  | did not cleave DEACM from c[R]GDfK | ~42% | Approximately 86%
